Laboratory results reported in patent publication US8912121B2, “Herbicidal compositions comprising 4-amino-3-chloro-5-fluoro-6-(4-chloro-2-fluoro-3-methoxyphenyl)pyridine-2-carboxylic acid or a derivative thereof and certain PS II inhibitors” (Dow Agrosciences LLC, priority 2012, dated 2014).

System: SCPMA (Schoenoplectus maritimus, sea clubrush)
Experiment: In-water applied mixtures, transplanted paddy rice, greenhouse
Assay type: in vivo, Schoenoplectus maritimus (L.) Lye
Protocol: Weed seeds or nutlets of the desired test plant species were planted in puddled soil (mud) prepared by mixing a shredded, non-sterilized mineral soil (50.5 percent silt, 25.5 percent clay, and 24 percent sand, with a pH of about 7.6 and an organic matter content of about 2.9 percent) and water at a 1:1 volumetric ratio. The prepared mud was dispensed in 365 mL aliquots into 16-ounce (oz.) non-perforated plastic pots with a surface area of 86.59 square centimeters (cm^2) leaving a headspace of 3 centimeters (cm) in each pot Mud was allowed to dry overnight prior to planting or transplanting. Rice seeds were planted in Sun Gro MetroMix® 306 planting mixture, which typically has a pH of 6.0 to 6.8 and an organic matter content of about 30 percent, in plastic plug trays. Seedlings at the second or third leaf stage of growth were transplanted into 840 mL of mud contained in 32-oz. non-perforated plastic pots with a surface area of 86.59 cm^2 4 days prior to herbicide application. The paddy was created by filling the headspace of the pots with 2.5 to 3 cm of water. When required to ensure good germination and healthy plants, a fungicide treatment and/or other chemical or physical treatment was applied. The plants were grown for 4-22 days in a greenhouse with an approximate 14 h photoperiod which was maintained at about 29° C during the day and 26° C. during the night. Nutrients were added as Osmocote® (19:6:12, N:P:K+ minor nutrients) at 2 g per 16-oz. pot and 4 g per 32-oz. pot. Water was added on a regular basis to maintain the paddy flood, and supplemental lighting was provided with overhead metal halide 1000-Watt lamps as necessary. The plants were employed for testing when they reached the first through fourth true leaf stage.
Treatments consisted of the acid or esters of 4-amino-3-chloro-5-fluoro-6-(4-chloro-2-fluoro-3-methoxy-phenyl)pyridine-2-carboxylic acid (compound A) each formulated as an SC (suspension concentrate) and various herbicidal components alone and in combination. Forms of compound A were applied on an acid equivalent basis.
Other herbicidal components were applied on an active ingredient basis and included photosystem II (PSII)-inhibits propanil formulated as […] bentazon-sodium formulated as Basagran®, and simetryne (technical grade material).
Treatment requirements for each compound or herbicidal component were calculated based upon the rates being tested, the concentration of active ingredient or acid equivalent in the formulation, an application volume of 2 mL per component per pot, and an application area of 86.59 cm^2 per pot.
For formulated compounds, a measured amount was placed in an individual 100 or 200 mL glass vial and was dissolved in a volume of 1.25% (v/v) Agri-Dex® crop oil concentrate to obtain application solutions.
For technical grade compounds, a weighed amount was placed in an individual 100 to 200 mL glass vial and was dissolved in a volume of acetone to obtain concentrated stock solutions. […] The concentrated stock solutions obtained were diluted with an equivalent volume of an aqueous mixture containing 2.5% (v/v) crop oil concentrate so that the final application solutions contained 1.25% (v/v) crop oil concentrate.
Applications were made by injecting with a pipetter appropriate amounts of the application solutions, individually and sequentially, into the aqueous layer of the paddy. Control plants were treated in the same manner with the solvent blank. Applications were made so that all treated plant material received the same concentrations of acetone and crop oil concentrate.
The treated plants and control plants were placed in a greenhouse as described above and water was added as needed to maintain a paddy flood. After approximately 3 weeks the condition of the test plants as compared with that of the untreated plants was determined visually and scored on a scale of 0 to 100 percent where 0 corresponds to no injury or growth inhibition and 100 corresponds to complete kill. […]

Structure (SMILES)	Visual Weed Control (%) Obs (8.75 g ae/ha, 21 DAA) [%]	Visual Weed Control (%) Obs (17.5 g ae/ha, 21 DAA) [%]	Visual Weed Control (%) Obs (35 g ae/ha, 21 DAA) [%]	Visual Weed Control (%) Obs (42.4 g ae/ha, 20 DAA) [%]	Visual Weed Control (%) Obs (84.8 g ae/ha, 20 DAA) [%]	Visual Weed Control (%) Obs (35 g ae/ha, 20 DAA) [%]	Visual Weed Control (%) Obs (70 g ae/ha, 20 DAA) [%]	Visual Weed Control (%) Obs (1680 g ai/ha, 21 DAA) [%]	Visual Weed Control (%) Obs (3360 g ai/ha, 21 DAA) [%]
COc1c(Cl)ccc(-c2nc(C(=O)O)c(Cl)c(N)c2F)c1F [Compound A Acid, 4-amino-3-chloro-6-(4-chloro-2-fluoro-3-methoxyphenyl)-5-fluoropyridine-2-carboxylic acid]	0	0	0	0	0	–	–	–	–
COc1c(Cl)ccc(-c2nc(C(=O)OCc3ccccc3)c(Cl)c(N)c2F)c1F [Compound A Benzyl Ester, benzyl ester of 4-amino-3-chloro-5-fluoro-6-(4-chloro-2-fluoro-3-methoxy-phenyl)pyridine-2-carboxylic acid]	0	0	0	–	–	0	0	–	–
CCC(=O)Nc1ccc(Cl)c(Cl)c1 [Propanil, N-(3,4-dichlorophenyl)propanamide, reference compound]	–	–	–	–	–	–	–	50	90
